Measured values reported in US8476197B2, “Aminopropenoates as fungicides” (priority 2009, dated 2013).
Where two headings read alike, the source gives them in different places. Marks after values point to notes of the source that are not given here.

Compound | Log P (pH 2.7) | also measured
C=Cc1nn(C)cc1C(NC(C(=O)OC)C(C)C)=C(C#N)C(=O)OCC (stereo not shown) [Compound 719] | 2.94^[a] | –
CCOC(=O)C(C#N)=C(NC(C)C(=O)NC)c1cc(Cl)ncc1Cl (stereo not shown) [Compound 720] | 2.19^[a] | –
CCOC(=O)C(C#N)=C(NC(C)C(N)=O)c1cc(Cl)ncc1Cl (stereo not shown) [Compound 721] | 2.64^[a] | –
CCOC(=O)C(C#N)=C(NC(C)C(N)=O)c1ccncc1Cl (stereo not shown) [Compound 722] | 1.65^[a] | –
CCOC(=O)C(C#N)=C(NC(C)C(=O)NC)c1ccncc1Cl (stereo not shown) [Compound 723] | 1.78^[a] | –
CCOC(=O)C(C#N)=C(NC(C)C(=O)NC)c1cccnc1C(F)F (stereo not shown) [Compound 724] | 1.62^[a] | –
CCOC(=O)C(C#N)=C(NC(C(=O)OC)C(C)C)c1cn(C)cc1C(F)(F)F (stereo not shown) [Compound 726] | 3.43^[a] | –
CCOC(=O)C(C#N)=C(NC(C)C(N)=O)c1cnccc1C(F)(F)F (stereo not shown) [Compound 727] | 1.8^[a] | –
CCNC(=O)C(C)NC(=C(C#N)C(=O)OCC)c1cccnc1Cl (stereo not shown) [Compound 728] | 2.1^[a] | –
CCOC(=O)C(C#N)=C(NC(C)C(N)=O)c1ccnc(Cl)c1Cl (stereo not shown) [Compound 729] | 1.88^[a] | –
CCOC(=O)C(C#N)=C(NC(C)C(=O)NC)c1ccnc(Cl)c1Cl (stereo not shown) [Compound 730] | 2.08^[a] | –
CCOC(=O)C(C#N)=C(NC(C)COCc1ccc(C(F)(F)F)cc1)c1cccnc1Cl (stereo not shown) [Compound 731] | 4.2^[a] | –
CCOC(=O)C(C#N)=C(NC(C(N)=O)C(C)C)c1cccnc1Cl (stereo not shown) [Compound 732] | 2.07^[a] | –
CCOC(=O)C(C#N)=C(NC(C)C(N)=O)c1ccncc1F (stereo not shown) [Compound 733] | 1.37^[a] | –
CCOC(=O)C(C#N)=C(NC(C)COC)c1sccc1Br (stereo not shown) [Compound 734] | 3.21^[a] | –
CCOC(=O)C(C#N)=C(NC(C)COc1ccc(C)cc1)c1cn(C)nc1C(F)F (stereo not shown) [Compound 735] | 3.71^[a] | –
CCOC(=O)C(C#N)=C(NC(C)COc1ccc(F)cc1)c1cn(C)nc1C(F)F (stereo not shown) [Compound 736] | 3.42^[a] | –
CCOC(=O)C(C#N)=C(NC(C)C(C)Sc1ccccc1)c1cn(C)nc1C(F)F (stereo not shown) [Compound 737] | 3.87^[a] | –
CCOC(=O)C(C#N)=C(NC(C)COc1ccccc1)c1cn(C)nc1C(F)F (stereo not shown) [Compound 738] | 3.37^[a] | –
CCOC(=O)C(C#N)=C(NC(C)COCc1ccccc1)c1cn(C)nc1C(F)F (stereo not shown) [Compound 739] | 3.48^[a] | –
CCOC(=O)C(C#N)=C(NC(C)COCc1ccccc1F)c1cn(C)nc1C(F)F (stereo not shown) [Compound 740] | 3.48^[a] | –
CCOC(=O)C(C#N)=C(NC(C)COc1ccccc1Cl)c1cn(C)nc1C(F)F (stereo not shown) [Compound 741] | 3.6^[a] | –

Compound | Log P (pH 2.7) | also measured
CCOC(=O)C(C#N)=C(NC(C)COc1cccc(OC)c1)c1cn(C)nc1C(F)F (stereo not shown) [Compound 742] | 3.35^[a] | –
CCOC(=O)C(C#N)=C(NC(C)CCl)c1cccnc1Cl (stereo not shown) [Compound 743] | – | Log P (pH 7.5): 2.7
COC(=O)C(C#N)=C(NC(C)(C)CF)c1cccnc1Cl [Compound 744] | 2.31^[a] | –
CCOC(=O)C(C#N)=C(NC(C)CF)c1cc(C)oc1C (stereo not shown) [Compound 745] | 2.8^[a] | –
COC(=O)C(C#N)=C(NC(C)CF)c1cccnc1Cl (stereo not shown) [Compound 746] | 2.05^[a] | –
CCOC(=O)C(C#N)=C(NC(C)CF)c1cc(Cl)sc1Cl (stereo not shown) [Compound 747] | 3.49^[a] | –
CCOC(=O)C(C#N)=C(NC(C)CF)c1cn(C)nc1OC (stereo not shown) [Compound 748] | 2.23^[a] | –
C=Cc1nn(C)cc1C(NC(C)CF)=C(C#N)C(=O)OCC (stereo not shown) [Compound 749] | 2.25^[a] | –
CCOC(=O)C(C#N)=C(NC(C)CF)c1ccncc1Cl (stereo not shown) [Compound 750] | 2.42^[a] | –
CCOC(=O)C(C#N)=C(NC(C)CF)c1cn(C)nc1C(F)(F)F (stereo not shown) [Compound 751] | 2.72^[a] | –
CCOC(=O)C(C#N)=C(NC(C)CF)c1cn(C)cc1C(F)(F)F (stereo not shown) [Compound 752] | 2.95^[a] | –
CCOC(=O)C(C#N)=C(NC(C)(C)C(C)(C)C)c1cn(C)nc1C(F)F [Compound 753] | 3.46^[a] | –
COC(=O)C(C#N)=C(NC(C)(C)C(C)(C)C)c1sc(C)nc1C(F)(F)F [Compound 754] | 4.02^[a] | –
CCOC(=O)C(C#N)=C(NC(C)(C)C(C)(C)C)c1sccc1Br [Compound 755] | 4.67^[a] | –
CCC(CC)NC(=C(C#N)C(=O)OC)c1cccnc1Cl [Compound 756] | 2.76^[a] | –
COC(=O)C(C#N)=C(NC(C)CC(F)(F)F)c1cccnc1Cl (stereo not shown) [Compound 757] | 2.34^[a] | –
COC(=O)C(C#N)=C(NC(C)(C)CC(F)(F)F)c1cccnc1Cl [Compound 758] | 2.34^[a] | –
COC(=O)C(C#N)=C(NC1CC1F)c1cccnc1Cl (stereo not shown) [Compound 759] | 1.87^[a] | –
CCOC(=O)C(C#N)=C(NC(C)C1CC=CCC1)c1cccnc1Cl (stereo not shown) [Compound 760] | 3.9^[a] | –
CCOC(=O)C(C#N)=C(NC1CCCCC1)c1cccnc1Cl [Compound 761] | 3.55^[a] | –
CCC(NC(=C(C#N)C(=O)OC)c1cccnc1Cl)C1CCCCC1 (stereo not shown) [Compound 762] | 4.07^[a] | –
COC(=O)C(C#N)=C(NC1CCCC1)c1cccnc1Cl [Compound 763] | 2.61^[a] | –

Compound | Log P (pH 2.7) | also measured
CCOC(=O)C(C#N)=C(NC1CC1)c1cccnc1Cl [Compound 764] | – | Log P (pH 2.3): 2.5; Log P (pH 7.5): 2.36
COC(=O)C(C#N)=C(NC(C1CC1)C1CC1)c1cccnc1Cl [Compound 765] | 2.85^[a] | –
COC(=O)C(C#N)=C(NC(C)CC1CC1)c1cccnc1Cl (stereo not shown) [Compound 766] | 2.84^[a] | –
CCOC(=O)C(C#N)=C(NC(C)CBr)c1cccnc1Cl (stereo not shown) [Compound 767] | – | Log P (pH 7.5): 2.79
COC(=O)C(C#N)=C(NC(C)C1(Cl)CC1)c1cccnc1Cl (stereo not shown) [Compound 768] | 2.72^[a] | –
CCOC(=O)C(C#N)=C(NC(C)C1(Cl)CC1)c1sccc1C(F)(F)F (stereo not shown) [Compound 769] | 4.04^[a] | –
COC(=O)C(C#N)=C(NC(C)C1(Cl)CC1)c1sc(C)nc1C(F)(F)F (stereo not shown) [Compound 770] | 3.53^[a] | –
CCOC(=O)C(C#N)=C(NC(C)C1(Cl)CC1)c1sccc1Br (stereo not shown) [Compound 771] | 3.94^[a] | –
CCOC(=O)C(C#N)=C(NC(C)C1(Cl)CC1)c1sc(C)nc1C(F)(F)F (stereo not shown) [Compound 772] | 3.89^[a] | –
CCOC(=O)C(C#N)=C(NC(C)C1(Cl)CC1)c1ccsc1Br (stereo not shown) [Compound 774] | 3.92^[a] | –
COC(=O)C(C#N)=C(NC(C)(C)C)c1cccnc1Cl [Compound 775] | 2.31^[a] | –
CCOC(=O)/C(C#N)=C(\NC(C)(C)C)c1nc(SC)ncc1Br [Compound 776] | 3.82^[a] | –
COC(=O)C(C#N)=C(NCC#N)c1sc(C)nc1C(F)(F)F [Compound 787] | 2.01^[a] | –
CCOC(=O)C(C#N)=C(NCC#N)c1cn(C)nc1C(F)F [Compound 788] | 1.79^[a] | –
CCOC(=O)C(C#N)=C(NCC#N)c1sccc1Br [Compound 789] | 2.33^[a] | –
CCOC(=O)C(C#N)=C(NCC#N)c1sc(C)nc1C(F)(F)F [Compound 790] | 2.35^[a] | –
CCOC(=O)C(C#N)=C(NCC#N)c1ccsc1Br [Compound 791] | 2.32^[a] | –
CCOC(=O)C(C#N)=C(NC(C)CC#N)c1cccnc1Cl (stereo not shown) [Compound 792] | – | Log P (pH 7.5): 2.13
COC(=O)C(C#N)=C(NC1CCC1)c1cccnc1Cl [Compound 793] | 2.34^[a] | –
CCOC(=O)C(C#N)=C(NC1CCC1)c1nc(Cl)ccc1Cl [Compound 794] | 3.58^[a] | –
CCOC(=O)C(C#N)=C(NC1CCC1)c1ncc(Cl)cc1Cl [Compound 795] | 3.67^[a] | –
CCOC(=O)C(C#N)=C(NC1CCC1)c1cnc(Cl)cc1Cl [Compound 796] | 3.55^[a] | –

Compound | Log P (pH 2.7) | also measured
CCOC(=O)C(C#N)=C(NC1CCC1)c1cc(Cl)ncc1Cl [Compound 797] | 3.55^[a] | –
CCOC(=O)C(C#N)=C(NC1CCC1)c1ccncc1Cl [Compound 798] | 2.84^[a] | –
CCOC(=O)C(C#N)=C(NC1CCC1)c1cccnc1C(F)F [Compound 799] | 2.76^[a] | –
CCOC(=O)C(C#N)=C(NC1CCC1)c1cnccc1C(F)(F)F [Compound 800] | 3.06^[a] | –
CCOC(=O)C(C#N)=C(NC1CCC1)c1cc(Cl)cc(Cl)n1 [Compound 801] | 3.79^[a] | –
CCOC(=O)C(C#N)=C(NC1CCC1)c1ccnc(Cl)c1Cl [Compound 802] | 3.52^[a] | –
CCOC(=O)C(C#N)=C(NC1CCC1)c1ccncc1Br [Compound 803] | 2.9^[a] | –
CCOC(=O)C(C#N)=C(NC1CCC1)c1ccncc1F [Compound 804] | 2.66^[a] | –
CCOC(=O)C(C#N)=C(NC1CCC1)c1ccncc1C(F)(F)F [Compound 805] | 3.6^[a] | –
COC(=O)C(C#N)=C(NC(C)C)c1cccnc1Cl [Compound 822] | 2.11^[a] | –
CCOC(=O)C(C#N)=C(NC(C)C)c1cccnc1Cl [Compound 823] | 2.66 | Log P (pH 2.3): 2.54; Log P (pH 7.5): 2.53
CCOC(=O)C(C#N)=C(NC(C)CC)c1cc(C)oc1C (stereo not shown) [Compound 825] | 3.63^[a] | –
CCC(C)NC(=C(C#N)C(=O)OC)c1cccnc1Cl (stereo not shown) [Compound 826] | 2.55^[a] | –
CCOC(=O)C(C#N)=C(NC(C)CC)c1sccc1Br (stereo not shown) [Compound 827] | 3.76^[a] | –
CCOC(=O)C(C#N)=C(NC(C)CC)c1sccc1C(F)(F)F (stereo not shown) [Compound 829] | 3.83^[a] | –
CCC(C)NC(=C(C#N)C(=O)OC)c1sc(C)nc1C(F)(F)F (stereo not shown) [Compound 831] | 3.23^[a] | –
CCOC(=O)C(C#N)=C(NC(C)CC)c1cn(C)nc1C(F)F (stereo not shown) [Compound 833] | 2.82^[a] | –
CCOC(=O)C(C#N)=C(NC(C)CC)c1sc(C)nc1C(F)(F)F (stereo not shown) [Compound 835] | 3.59^[a] | –
CCCCCC(C)NC(=C(C#N)C(=O)OCC)c1sccc1Br (stereo not shown) [Compound 844] | 5.03^[a] | –
CCCCCC(C)NC(=C(C#N)C(=O)OCC)c1sccc1C(F)(F)F (stereo not shown) [Compound 847] | 5.05^[a] | –
CCCCCC(C)NC(=C(C#N)C(=O)OC)c1sc(C)nc1C(F)(F)F (stereo not shown) [Compound 850] | 4.41^[a] | –
CCCCCC(C)NC(=C(C#N)C(=O)OCC)c1cn(C)nc1C(F)F (stereo not shown) [Compound 853] | 3.94^[a] | –
